Measured values from patent publication EP2815749A1, “Solid form of 4-amino-2-(2,6-dioxopiperidine-3-yl)isoindoline-1,3-dione having specified X-ray diffraction pattern” (IP Gesellschaft für Management mbH, priority 2013, dated 2014).
Structures can show the parent of a compound that is named as a salt. Where two headings read alike, the source gives them in different places.

Key:
[1] = Solid state stability study of Example 1 (hemisulfate salt, Form HI.5-1); format: physicochemical
Method: Stability Study: The solid state stability of Example lwas tested by exposing samples to various temperature and relative humidity conditions for periods of 1, 2, and 4 weeks. […] Table 4: Solid State Stability of Hemisulfate Salt, Form HI.5-1 ({drug6b}): […]

[2] = Moisture sorption isotherm of Example 1; format: physicochemical; details: 25°C
Excerpt: Example 1 has moisture sorption weight gains of 0.8 weight % and 2.8 weight % between 25% and 75% relative humidity and 5% and 95% relative humidity, respectively. […] PXRD Peak Positions (degrees 2Θ±0.1):
The hemisulfate salt of Compound (VI) has the surprising advantage of reducing the variability in the bioavailability of Compound (VI) and/or increasing the bioavailability of Compound (VI) to the patient. Based on these in vitro and in vivo data, it is expected that the hemisulfate will provide a significant advantage of consistency in bioavailability among patients over the free form. […] Single Crystal Data (LVL): Data were collected on a Bruker-Nonius CAD4 serial diffractometer. […] Intensities were measured using Cu Ka radiation (λ = 1.5418 A) at a constant temperature with the Θ-2Θ variable scan technique and were corrected only for Lorentz-polarization factors. […] Indexing and processing of the measured intensity data were carried out with the HKL2000 software package (Otwinowski, Z & Minor, W. (1997) in Macromolecular Crystallography, eds. Carter, W.C. Jr. & Sweet, R.M. (Academic, NY), Vol. 276, pp307-326) in the Collect program suite. […] Indexing and processing of the measured intensity data were carried out with the APEX2 software package/program suite (APEX2 Data collection and processing user interface: APEX2 User Manual, v1.27; BRUKER AXS, inc., Madison, WI). […]

[3] = Stability in water slurry; format: physicochemical; details: room temperature, after two days
Method: (§1) Other Crystalline Forms of Example 1: Form P22C: prepared by heating Form HI.5-1 ({drug6b}) at 60°C for 2 hours or at 75°C for 5 minutes. […] Form P33 ({drug6c}): Form HI.5-1 ({drug6b}) converted to Form P33 ({drug6c}) between 50°C and 75°C in variable temperature PXRD experiment. […] Form P35: Prepared from slurry of Form HI.5-1 ({drug6b}) in dry MeOH under molecular sieves (7% RH). Converted to Form P33 ({drug6c}) when dried at 60°C. Stability in Water Slurry: An aqueous slurry of Example 1 was prepared and stored at room temperature. […] The hemisulfate salt of Compound (VI) has the surprising advantage of providing a salt that is physically stable and chemically stable compared to other salts of Compound (VI). Further, the hemisulfate salt had the surprising advantage of being provided in a stable crystalline form, Form HI.5-1 ({drug6b}).

[4] = Water activity studies between crystalline forms; format: physicochemical
Method: as §1

[5] = In vivo pharmacokinetics of Compound (VI) free base and hemisulfate salt capsules; details: dogs; for bioavailability: oral capsule, 150 mg of Compound (VI) (or equivalent), after pretreatment with famotidine (40 mg)
Method: An aliquot of 0.050 mL of dog EDTA plasma was used for the assay. […] A 450 µï^ portion of the organic layer was removed and evaporated to dryness. The residue was reconstituted in 300 µl, of the reconstitution solution (30% acetonitrile in 10 mM NH40Ac with 0.01% acetic acid). All liquid transfer steps were performed using a Perkin Elmer JANUS Mini® liquid handler except for the addition of the internal standard solution. A 5 µï^ aliquot of the extracted sample was injected to uHPLC-MS/MS system. The uHPLC was performed on a LEAP 4X Ultra uHPLC system with LEAP HTC PAL autosampler. Mobile phase A contained 10 mM NH4OAc and 0.01% acetic acid in ACN/water (10:90), and mobile phase B contained 10 mM NH4OAc and 0.01% acetic acid in ACN/water (90: 10). […] The flow rate was 0.6 mL/min and column temperature was maintained at 60°C condition. Detection was accomplished using an AB Sciex Triple Quad 5500 mass spectrometer in positive ESI with turbo ion spray ionization and using multiple reaction monitoring (MRM) mode. […] Data acquisition and quantification were performed using AB Sciex Analyst® 1.5.1 software.

[6] = Salt screening and crystalline salt characterization of Compound (VI); details: for Hygroscopicity: ambient temperature and relative humidity conditions, hemisulfate salt
Method: The screening examined acid type, acid level (equivalents), and/or type of crystallization solvent. Each plate contained 96 well plates (8 rows of 12 columns per plate). […] The solution (12.5 mL) was transferred to 24 vials. To each vial was added 0.25 M EtOH stock solutions of the following acids:
The content of each vial was transferred to 12 crystallization wells and evaporated to dryness. Upon evaporation, each well was charged with 100 µl of solvent using a robotic liquid handler. The following crystallization solvents were tested: methyl isobutyl ketone (MIBK), ethyl acetate, toluene, THF, acetonitrile, acetone, isopropanol, ethanol, methanol, 1,2-dichloroethylene, isopropanol/water (50:50), and water. Next, the plates were sealed with Teflon septa and subjected to temperature cycling. […] After the heating/cooling cycle, the contents of the wells were characterized by birefringent imaging. Perceived crystalline hits were further characterized by PXRD analysis.

[7] = for Stability in water: 2 days at 50°C
Method: (§2) Hygroscopicity: Sorption/desorption isotherms were measured using the VT1100 humidity microbalance (VTI Corporation, Hialeah, FL, USA). Measurements were carried out at 25°C. Samples were dried under N2 flow at 25°C. […] Concentration in supernatant was measured by gravimetry for organic solvents and by HPLC from aqueous solvents and propylene glycol.

[8] = for water uptake at 5 % RH: 25°C
Method: as §2

[9] = 1440 min
[10] = 25 RH/ 60 °C (first such line, r3), 1 week
[11] = 25 RH/ 60 °C (first such line, r3), 2 weeks
[12] = 25 RH/ 60 °C (first such line, r3), 4 weeks
[13] = 25 RH/ 60 °C (first such line, r3), Initial
[14] = 25 RH/ 60 °C (second such line, r5), 1 week
[15] = 25 RH/ 60 °C (second such line, r5), 2 weeks
[16] = 25 RH/ 60 °C (second such line, r5), 4 weeks
[17] = 25 RH/ 60 °C (third such line, r6), 1 week
[18] = 25 RH/ 60 °C (third such line, r6), 2 weeks
[19] = 25 RH/ 60 °C (third such line, r6), 4 weeks

## N[C@@H]1c2cccnc2[C@H](OC(=O)N2CCC(n3c(=O)[nH]c4ncccc43)CC2)CC[C@H]1c1cccc(F)c1F [Example 1, (5S,6S,9R)-5-Amino-6-(2,3-difluorophenyl)-6,7,8,9-tetrahydro-5H-cyclohepta[b]pyridin-9-yl 4-(2-oxo-2,3-dihydro-1H-imidazo[4,5-b]pyridin-1-yl) piperidine-1-carboxylate, Hemisulfate Salt]
[1]; [10]
  % pot.: 94.4%
  % total imp.: 0.27%
[1]; [11]
  % pot.: 96.8%
  % total imp.: 0.27%
[1]; [12]
  % pot.: 96.9%
  % total imp.: 0.27%
[1]; [13]
  % pot.: 98.5%
  % total imp.: 0.27%
[1]; [14]
  % pot.: 95.1%
  % total imp.: 0.27%
[1]; [15]
  % pot.: 98.5%
  % total imp.: 0.27%
[1]; [16]
  % pot.: 97.0%
  % total imp.: 0.27%
[1]; [17]
  % pot.: 101.6%
  % total imp.: 0.28%
[1]; [18]
  % pot.: 102.6%
  % total imp.: 0.27%
[1]; [19]
  % pot.: 110.0%
  % total imp.: 0.27%
[1]; HIL/UV, 1 week
  % pot.: 100.7%
  % total imp.: 0.27%
[1]; HIL/UV, 2 weeks
  % pot.: 96.9%
  % total imp.: 0.27%
[1]; Refrigerated, 1 week
  % pot.: 98.0%
  % total imp.: 0.29%
[1]; Refrigerated, 2 weeks
  % pot.: 96.5%
  % total imp.: 0.27%
[1]; Refrigerated, 4 weeks
  % pot.: 105.7%
  % total imp.: 0.27%
[1]; Refrigerated, Initial
  % pot.: 98.5%
  % total imp.: 0.27%
[1]; various temperature and relative humidity conditions, up to four weeks of storage
  Solid state stability: stable
[2]; between 5% and 95% relative humidity
  moisture sorption weight gain: 2.8 weight %
[2]; between 25% and 75% relative humidity
  moisture sorption weight gain: 0.8 weight %
[3]
  Chemical degradation in aqueous slurry: no significant chemical degradation
  PXRD pattern after aqueous slurry: no change in the PXRD pattern
[4]; versus Form P22C
  Relative stability (water activity): more stable at > 23% relative humidity
[4]; versus Form P33
  Relative stability (water activity): more stable at > 23% relative humidity
[5]; 150 mg capsule oral, famotidine pretreatment
  BA Mean: 34.73%

## N[C@@H]1c2cccnc2[C@H](OC(=O)N2CCC(n3c(=O)[nH]c4ncccc43)CC2)CC[C@H]1c1cccc(F)c1F [Compound (VI), N-(5S,6S,9R)-5-amino-6-(2,3-10-difluorophenyl)-6,7,8,9-tetrahydro-5H-cyclohepta[b]pyridin-9-yl-4-(2-oxo-2,3-dihydro-1H-imidazo[4,5-b]pyridin-1-yl)piperidine-1-carboxylate]
[5]; listed as Compound (VI) free base
  bioavailability: 4.54%

## N[C@@H]1c2cccnc2[C@H](OC(=O)N2CCC(n3c(=O)[nH]c4ncccc43)CC2)CC[C@H]1c1cccc(F)c1F [hemisulfate salt of Compound (VI), (5S,6S,9R)-5-amino-6-(2,3-dfluorophenyl)-6,7,8,9-tetrahydro-5H-cyclohepta[b] pyridin-9-yl 4-(2-oxo-2,3-dihydro-1 H-imidazo[4,5-b]pyridin-1-yl)piperidine-1-carboxylate, hemisulfate salt]
[6]
  Chemical stability: chemically stable
  Physical stability: physically stable
  Hygroscopicity: low hygroscopicity
[6]; listed as Sulfuric acid
  Hygroscopicity: low/non-hygroscopic at ambient temperatures and relative humidity conditions
[5]; hemisulfate salt
  bioavailability: 34.73%

## N#Cc1ccc([C@H]2CCc3cncn32)c(F)c1 [phosphate salt, 4-(R)-(6,7-dihydro-5H-pyrrolo[1,2-c]imidazol-5-yl)-3-fluoro-benzonitrile]
[7]
  Stability in water: stable
[8]
  water uptake at 5 % RH: 0%
[8]; r.h. 0%
  Moisture gain: 0.0%
[8]; r.h. 5%
  Moisture gain: 0.0%
[8]; r.h. 25%
  Moisture gain: 0.1%
[8]; r.h. 50%
  Moisture gain: 0.1%
[8]; r.h. 75%
  Moisture gain: 0.2%
[8]; r.h. 85%
  Moisture gain: 0.3%
[8]; r.h. 95%
  Moisture gain: 0.8%
[9]; pH 6.8, 25°C
  solubility: > 50 mg/mL

## N#Cc1ccc([C@H]2CCc3cncn32)c(F)c1 [nitrate salt, 4-(R)-(6,7-dihydro-5H-pyrrolo[1,2-c]imidazol-5-yl)-3-fluoro-benzonitrile]
[7]
  Stability in water: stable
[7]; water
  Solubility in water at the 0.1% target concentration: soluble
[8]
  water uptake at 5 % RH: 0%
[8]; r.h. 0%
  Moisture gain: 0.0%
[8]; r.h. 5%
  Moisture gain: 0.0%
[8]; r.h. 25%
  Moisture gain: 0.1%
[8]; r.h. 50%
  Moisture gain: 0.2%
[8]; r.h. 75%
  Moisture gain: 0.2%
[8]; r.h. 85%
  Moisture gain: 0.2%
[8]; r.h. 95%
  Moisture gain: 0.2%
[9]; pH 1, 25°C
  solubility: > 50 mg/mL
